Results as given in US20210267996A1, “Compounds for inhibition of inflammation” (Children`s Medical Center Corporation, priority 2018, published 2021).

System: GSDMD pore formation
Assay: GSDMD membrane staining and pyroptotic bubbles, immunofluorescence
Assay type: cell-based, human
Conditions: 30 μM, 30 min after nigericin
Method: Immunostaining and confocal microscopy: cells grown on coverslips were fixed for 15 min with 4% paraformaldehyde in PBS, permeabilized for 5 min in 0.1% Triton X-100 in PBS and blocked using 5% BSA for 1 hr. Then, cells were stained with the indicated primary antibodies followed by incubation with fluorescent-conjugated secondary antibodies (Jackson ImmunoResearch). Nuclei were counterstained with DAPI (4,6-diamidino-2-phenylindole) (Sigma-Aldrich). Slides were mounted using Aqua-Poly/Mount (Dako). Images were captured using a laser scanning confocal microscope (Olympus Fluoview FV1000 Confocal System) with a 63× water immersion objective and Olympus Fluoview software (Olympus). All confocal images are representative of three independent experiments.
To assess which steps in NLRP3-mediated inflammation were inhibited post ASC speck formation, LPS-primed THP-1 cells were treated with vehicle or 30 μM z-VAD-fmk, disulfiram or Bay 11-7082 1 hr before adding nigericin, and cleavage and activation of caspase-1, GSDMD, and pro-IL-1β were analysed by immunoblot of whole cell lysates 30 min later (FIG. 50). Secretion of processed IL-1β was also assessed by immunoblot of culture supernatants. […] Because immunoblots are not quantitative, caspase-1 activity 30 min after adding nigericin was also assessed using a fluorescent substrate in intact cells. […] Next, the effect of z-VAD-fmk, disulfiram and Bay 11-7082 on LPS+nigericin-induced GSDMD pore formation was assessed by immunofluorescence microscopy using a monoclonal antibody that was generated that recognizes both uncleaved GSDMD and its pore form (FIGS. 53, 54, and 64-66). […]
Cell death was determined by CytoTox96 assay. […] Cell death was determined by CytoTox96 assay. […] Representative images of ASC specks (arrowheads) and mean±s.d. percent of cells with ASC specks analyzed 20 min later (FIG. 47). […] Caspase-1 activity was assayed 30 min after adding nigericin using a cell-permeable fluorescence dye FAM-YVAD-FMK (FIG. 52). […]

Structure (SMILES) | GSDMD membrane staining and pyroptotic bubbles
CCN(CC)C(=S)SSC(=S)N(CC)CC [C-23, Tetraethylthiuram disulfide] | completely blocked
Cc1ccc(S(=O)(=O)/C=C/C#N)cc1 [Bay 11-7082] | completely blocked
